Laboratory results as given in patent publication US20050048127A1, “Small spherical particles of low molecular weight organic molecules and methods of preparation and use thereof” (priority 2003, published 2005).

Tests used:
[1] = Formation of small spherical particles from first/second solvent mixtures on glass slide under nitrogen flow, graded by polarized light microscope; assay type: physicochemical; set-up: key: (+) = predominantly small spherical particles; (+/−) = a mixture of small spherical particles and non-spherical particles; (−) = predominantly non-spherical particles; ppt = the steroid precipitated out during addition of the second solvent
Text: The ability to form small spherical particles of two steroids, beclomethasone dipropionate (BDP) and fluticasone propionate (FP) was examined in matrix experiments using acetone, ethanol, methanol, and methyl ethyl ketone (MEK) individually as the first solvents and water and heptane individually as the second solvents. The amount of second solvent added to the first solvent/steroid solution was varied as 0%, 10%, 20%, 30%, and 40% (v/v). MEK is not miscible with water and methanol is not miscible with heptane, so those combinations were not included in the experiment.
Either BDP or FP was weighed into a large screw cap glass tube and the solvent of choice was added (w/v) to yield a final concentration of 2 mg/mL. The tubes were vortexed and sonicated to completely dissolve the steroid. The sealed tubes containing these solutions were used as stock solutions for subsequent mixture with the appropriate second solvent. Immediately prior to use, an appropriate amount of the second solvent was slowly added to the first solvent/steroid solution while mixing to avoid premature precipitation. After adding the second solvent, the solutions were visually examined to ensure that premature precipitation had not occurred.
A fixture was constructed such that a 0.125-inch diameter orifice nozzle was positioned 1.75 inches above a standard glass microscope slide. Nitrogen gas was allowed to flow at 5 liters per minute through the nozzle and over the slide such that the flow direction of the gas was perpendicular to the surface of the slide. One or two drops of the test solution were placed on the slide directly under the orifice, and the nitrogen flow continued until the slide was dry (one to three minutes depending on the solution composition). Each slide was then examined under a polarized light microscope (Leica EPISTAR, Buffalo, N.Y.) using incident lighting. Each slide was graded for the presence of predominantly small spherical particles (+), a mixture of small spherical particles and non-spherical particles (+/−), and predominantly non-spherical particles (−). Variations in size and size distribution were observed between different test solutions.

[2] = Particle morphology and size by scanning electron microscopy (SEM); assay type: physicochemical; conditions: broad distribution, some particles larger than upper value
Experimental: Particle morphology for the following examples was obtained using Scanning Electron Microscopy (SEM, FEI Quanta 200, Hilsboro, Oreg.). The sample was prepared for analysis by placing a small amount on carbon double-stick tape fixed to an aluminum sample mount. The sample was then sputter-coated using a Cressington sputter coater 108 Auto for 90 seconds and 20 mA. A second SEM instrument (Amray 1000, Bedford, Mass.) was used to obtain additional images of the small spherical particles, due to its higher resolution capabilities. Particle morphology for the following examples was obtained using Scanning Electron Microscopy (FEI Quanta 200, Hilsboro, Oreg.). FIG. 4 presents SEM of micronized budesonide starting material and FIG. 5 presents SEM of the resulting budesonide small spherical particles.

[3] = first solvent MEK, 0% second solvent (2 mg/mL stock solution)
[4] = first solvent acetone, 0% second solvent (2 mg/mL stock solution)
[5] = first solvent acetone, 10% heptane
[6] = first solvent acetone, 10% water
[7] = first solvent acetone, 20% heptane
[8] = first solvent acetone, 20% water
[9] = first solvent acetone, 30% heptane
[10] = first solvent acetone, 30% water
[11] = first solvent acetone, 40% heptane
[12] = first solvent acetone, 40% water
[13] = first solvent ethanol, 0% second solvent (2 mg/mL stock solution)
[14] = first solvent ethanol, 10% heptane
[15] = first solvent ethanol, 10% water
[16] = first solvent ethanol, 20% heptane
[17] = first solvent ethanol, 20% water
[18] = first solvent ethanol, 30% heptane
[19] = first solvent ethanol, 30% water
[20] = first solvent ethanol, 40% heptane
[21] = first solvent ethanol, 40% water
[22] = first solvent methanol, 0% second solvent (2 mg/mL stock solution)
[23] = first solvent methanol, 10% water
[24] = first solvent methanol, 20% water
[25] = first solvent methanol, 30% water
[26] = first solvent methanol, 40% water

| Compound | Formation of small spherical particles [1, 3] | Formation of small spherical particles ([1]; first solvent MEK, 10% heptane) | Formation of small spherical particles ([1]; first solvent MEK, 20% heptane) | Formation of small spherical particles ([1]; first solvent MEK, 30% heptane) | Formation of small spherical particles ([1]; first solvent MEK, 40% heptane) | Formation of small spherical particles [1, 4] | Formation of small spherical particles [1, 5] | Formation of small spherical particles [1, 6] | Formation of small spherical particles [1, 7] | Formation of small spherical particles [1, 8] | Formation of small spherical particles [1, 9] | Formation of small spherical particles [1, 10] | Formation of small spherical particles [1, 11] | Formation of small spherical particles [1, 12] | Formation of small spherical particles [1, 13] | Formation of small spherical particles [1, 14] | Formation of small spherical particles [1, 15] | Formation of small spherical particles [1, 16] | Formation of small spherical particles [1, 17] | Formation of small spherical particles [1, 18] | further results |
| --- | --- | --- | --- | --- | --- | --- | --- | --- | --- | --- | --- | --- | --- | --- | --- | --- | --- | --- | --- | --- | --- |
| CCC(=O)OCC(=O)[C@@]1(OC(=O)CC)[C@@H](C)C[C@H]2[C@@H]3CCC4=CC(=O)C=C[C@]4(C)[C@@]3(Cl)[C@@H](O)C[C@@]21C [Beclomethasone dipropionate] | +/− | + | + | + | + | + | + | + | + | + | +/− | + | +/− | + | + | + | + | +/− | + | +/− | Formation of small spherical particles [1, 19]: +; Formation of small spherical particles [1, 20]: +/−; Formation of small spherical particles [1, 21]: +; Formation of small spherical particles [1, 22]: +; Formation of small spherical particles [1, 23]: +; Formation of small spherical particles [1, 24]: +; Formation of small spherical particles [1, 25]: +; Formation of small spherical particles [1, 26]: + |
| CCC(=O)O[C@]1(C(=O)SCF)[C@H](C)C[C@H]2[C@@H]3C[C@H](F)C4=CC(=O)C=C[C@]4(C)[C@@]3(F)[C@@H](O)C[C@@]21C [Fluticasone propionate] | +/− | − | − | − | − | + | + | + | + | +/− | +/− | − | +/− | − | +/− | − | +/− | − | +/− | − | Formation of small spherical particles [1, 19]: −; Formation of small spherical particles [1, 20]: −; Formation of small spherical particles [1, 21]: −; Formation of small spherical particles [1, 22]: −; Formation of small spherical particles [1, 23]: −; Formation of small spherical particles [1, 24]: ppt; Formation of small spherical particles [1, 25]: ppt; Formation of small spherical particles [1, 26]: ppt |
| CCC(=O)OCC(=O)[C@@]1(OC(=O)CC)[C@@H](C)C[C@H]2[C@@H]3CCC4=CC(=O)C=C[C@]4(C)[C@@]3(Cl)[C@@H](O)C[C@@]21C [micronized BDP starting material, beclomethasone dipropionate] |  |  |  |  |  |  |  |  |  |  |  |  |  |  |  |  |  |  |  |  | particle size distribution [2]: 5-50 microns |
